Read-outs that look alike come from different tables or passages of the source. *1 amine or outer side, *2 acyl side, *3 side chain or, on linkers, in order; H or OH if unused. Where a SMILES comes first, the peptide text is derived from it. [ ]: non-standard residue; d: D form. The star is where a group is joined. GluureaLys(ε-3-ClBenzyl) = O=C(O)CC[C@H](NC(=O)N[C@@H](CCCCN(Cc1cccc(Cl)c1)*)C(=O)O)C(=O)O; X4 = C[C@]12CC[C@H](OC(=O)CCC(=O)*)CC1=CC[C@@H]1[C@@H]2CC[C@]2(C)C(c3cccnc3)=CC[C@@H]12; Dolaproine = CO[C@@H]([C@@H]1CCCN1)[C@@H](C)C(=O)O; Dil = CC[C@H](C)[C@H](NC)[C@@H](CC(=O)O)OC; X2 = O=C(CCCc1cn(CCCN[*:1])nn1)[*:2]; PABC = O=C(OCc1ccc(N[*:1])cc1)[*:2]; X1 = C[C@@H](N*)[C@@H](O)c1ccccc1; Cit = NC(=O)NCCC[C@H](N)C(=O)O; Suc = O=C(CCC(=O)[*:2])[*:1]; NMeV = CN[C@H](C(=O)O)C(C)C; Ahx = NCCCCCC(=O)O
Experiments:
[1] = Body weight, general condition and mortality in the antitumor efficacy study; settings: i.v. 132.3 nM/kg x3
Method: Animal body weight data are presented in Table S2 in the electronic supplementary materials.
To study the antitumor efficacy, conjugates were administered intravenously at a dose of 132.3 nM/kg to tumor-bearing mice three times at five-day intervals; administration was started 7−8 days after cell inoculation, and the tumor size was 70−90 mm^3. As a control substance, 0.9% sodium chloride solution was used. Experimental groups included five animals each. […] The mixture was dissolved in DMSO (5% of final solution) and diluted with hemodesum (30% low-molecular-weight polyvinylpyrrolidone (Mw = 8000 ± 200) saline infusion solution). The presence of tumors and their sizes, as well as the body weights of the mice, were recorded every five days during the observation of the animals. The antitumor effect was assessed by comparing the tumor volumes in the experimental and control groups as well as the amount of tumor growth inhibition (TGI, %). […]
(§1) 3.2.1. In vivo evaluation of antitumor efficacy […]
(§2) intravenously at a dose of 132.3 nM/kg to tumor-bearing mice three times at 5-day intervals, the administration was started 7-8 days after cell inoculation to animals, tumor size was 70-90 mm3.
(§3) A 0.9% sodium chloride solution was used as a control substance. The experimental groups […]
(§4) The presence of tumor masses and their size, as well as the body weight of the mice, were recorded every 5 days during observation. In accordance with humane principles, animals were euthanized by placing the mice in a CO2 inhalation chamber (ZOONLAB GmbH, Germany).
Conjugate Method of injection Dose Number of animals 22Rv1 PC-3 […]
3.4. In vivo Efficacy Evaluation
Days after tumor implantation / mass± error, g
Conjugate 7 day 12 day 17 day […]
injection) injection) injection)
Human prostate carcinoma 22Rv1
Human prostate adenocarcinoma PC-3
Table S3. Tumor growth dynamics of 22Rv1 and PC-3 in mice with intravenous triple injection of […]
ate Days after tumor implantation / V±m, mm3

[2] = system: 22Rv1 human prostate carcinoma xenograft; settings: 22Rv1 xenograft; for tumor volume V±m: i.v. triple injection, single dose 132.3 nM/kg; for Tumor growth inhibition: i.v. 132.3 nM/kg three times
Method: (§5) We carried out in vivo studies of the efficacy of the obtained bimodal conjugates. […] Also, conjugate I (Figure 5) was used as a reference compound. An isotonic (0.9%) sodium chloride solution was used as a negative control. Studies were carried out in xenograft models of 22Rv1 human prostate carcinoma and PC-3 prostate adenocarcinoma in immunodeficient Balb/c nude mice (male).
(§6) Two cell lines were used: human prostate carcinoma 22Rv1 and prostate adenocarcinoma PC-3 (ATCC collection). Cells were cultured in 75 cm^2 vials (Costar, Washington, DC, USA) in RPMI-1640 medium (PanEco, Russia) with the addition of 2 mM L-glutamine (PanEco, Russia) and 10% fetal calf serum (HyClone, Logan, UT, USA) under standard conditions of cultivation (in a humidified atmosphere at 37 °C and 5% CO2). Cells of 6–10 passages were used to inoculate the animals. Cell suspension was prepared with a concentration of 5 × 10^6 cells in 0.05 mL of the 22Rv1 medium and in 0.1 mL of the PC-3 medium. 22Rv1 cells were inoculated into animals in Matrigel (BD Matrigel Basement Membrane Matrix, BD Biosciences, San Jose, CA, USA). Manipulations with Matrigel were performed on a refrigerated plate using precooled materials, tubes and instrumentation. For animal administration, 50 μL of the cell suspension (5 × 10^6 cells) was transferred to a chilled tube containing 50 μL of Matrigel; after mixing, the cellular material (final volume of 100 μL) was injected subcutaneously into the groin area of the animal. To obtain subcutaneous xenograft PC-3, a 5 × 10^6 suspension of tumor cells was inoculated subcutaneously into the inguinal cavity of male mice in a volume of 0.1 mL.
(§7) To study the antitumor efficacy, conjugates were administered intravenously at a dose of 132.3 nM/kg to tumor-bearing mice three times at five-day intervals; administration was started 7−8 days after cell inoculation, and the tumor size was 70−90 mm^3. As a control substance, 0.9% sodium chloride solution was used. Experimental groups included five animals each. […] The mixture was dissolved in DMSO (5% of final solution) and diluted with hemodesum (30% low-molecular-weight polyvinylpyrrolidone (Mw = 8000 ± 200) saline infusion solution). The presence of tumors and their sizes, as well as the body weights of the mice, were recorded every five days during the observation of the animals. The antitumor effect was assessed by comparing the tumor volumes in the experimental and control groups as well as the amount of tumor growth inhibition (TGI, %).
(§8) Tumor volume was calculated using Formula (1):V = d1 × d2 × d3 × 0.52(1) where d1, d2 and d3 are the three mutually perpendicular dimensions of the tumor. […]
as §1, §2, §3, §4

[3] = system: PC-3 prostate adenocarcinoma xenograft; settings: PC-3 xenograft; for tumor volume V±m: i.v. triple injection, single dose 132.3 nM/kg; for Tumor growth inhibition: i.v. 132.3 nM/kg three times; for TGI, did not exceed: i.v. 132.3 nM/kg three times at five-day intervals, male Balb/c nude mice
Method: as §5, §6, §7, §8, §1, §2, §3, §4

[4] = 22Rv1 xenograft mice, 7 day after tumor implantation (1st injection)
[5] = 22Rv1 xenograft mice, 12 day after tumor implantation (2nd injection)
[6] = 22Rv1 xenograft mice, 17 day after tumor implantation (3rd injection)
[7] = 22Rv1 xenograft mice, 22 day after tumor implantation
[8] = 22Rv1 xenograft mice, 27 day after tumor implantation
[9] = 22Rv1 xenograft mice, 33 day after tumor implantation
[10] = 22Rv1 xenograft mice, 37 day after tumor implantation
[11] = PC-3 xenograft mice, 7 day after tumor implantation (1st injection)
[12] = PC-3 xenograft mice, 12 day after tumor implantation (2nd injection)
[13] = PC-3 xenograft mice, 17 day after tumor implantation (3rd injection)
[14] = PC-3 xenograft mice, 22 day after tumor implantation
[15] = PC-3 xenograft mice, 27 day after tumor implantation
[16] = PC-3 xenograft mice, 33 day after tumor implantation
[17] = PC-3 xenograft mice, 37 day after tumor implantation
[18] = 7 day after tumor implantation (1st injection)
[19] = 12 day after tumor implantation (2nd injection)
[20] = 17 day after tumor implantation (3rd injection)
[21] = 22 day after tumor implantation
[22] = 33 day after tumor implantation
[23] = 37 day after tumor implantation
[24] = days after the start of treatment: 1
[25] = days after the start of treatment: 5
[26] = days after the start of treatment: 10
[27] = days after the start of treatment: 16
[28] = days after the start of treatment: 20

Row | Compound | body weight, mass ± error [1, 4] [g] | body weight, mass ± error [1, 5] [g] | body weight, mass ± error [1, 6] [g] | body weight, mass ± error [1, 7] [g] | body weight, mass ± error [1, 8] [g] | body weight, mass ± error [1, 9] [g] | body weight, mass ± error [1, 10] [g] | body weight, mass ± error [1, 11] [g] | body weight, mass ± error [1, 12] [g] | body weight, mass ± error [1, 13] [g] | body weight, mass ± error [1, 14] [g] | body weight, mass ± error [1, 15] [g] | body weight, mass ± error [1, 16] [g] | body weight, mass ± error [1, 17] [g] | tumor volume V±m [2, 18] [mm3] | tumor volume V±m [2, 19] [mm3] | tumor volume V±m [2, 20] [mm3] | tumor volume V±m [2, 21] [mm3] | tumor volume V±m [2, 22] [mm3] | tumor volume V±m [2, 23] [mm3] | other results
1 | CC[C@H](C)[C@@H]([C@@H](CC(=O)N1CCC[C@H]1[C@H](OC)[C@@H](C)C(=O)N[C@H](C)[C@@H](O)c1ccccc1)OC)N(C)C(=O)[C@@H](NC(=O)[C@H](C(C)C)N(C)C(=O)OCc1ccc(NC(=O)[C@H](CCCNC(N)=O)NC(=O)[C@@H](NC(=O)CCCc2cn(CCCNC(=O)[C@H](CCCCNC(=O)CCC(=O)O[C@H]3CC[C@@]4(C)C(=CC[C@@H]5[C@@H]4CC[C@]4(C)C(c6cccnc6)=CC[C@@H]54)C3)NC(=O)[C@H](Cc3ccc(O)cc3)NC(=O)[C@H](Cc3ccccc3)NC(=O)CCC(=O)NCCCCCC(=O)N(CCCC[C@H](NC(=O)N[C@@H](CCC(=O)O)C(=O)O)C(=O)O)Cc3cccc(Cl)c3)nn2)C(C)C)cc1)C(C)C [13a] ({GluureaLys(ε-3-ClBenzyl)-Ahx-Suc}-FYK(X4)[X2]V[Cit][PABC][NMeV]V[Dil][Dolaproine]-X1) | 22.3 ± 1.3 | 22.5 ± 1.4 | 22.2 ± 1.4 | 22.2 ± 1.4 | 22.5 ± 1.3 | 22.7 ± 1.3 | 22.7 ± 1.3 | 24.9 ± 1.2 | 24.7 ± 1.5 | 24.8 ± 1.4 | 25.0 ± 1.4 | 25.1 ± 1.3 | 25.2 ± 1.2 | 25.3 ± 1.2 | 69.6±17.0 | 77.2±9.3 | 81.4±25.8 | 121.7 | 391.6 | 784.0 | Tumor growth inhibition [2, 24]: 62.0%; Tumor growth inhibition [2, 25]: 77.1%; Tumor growth inhibition [2, 26]: 80.4%; Tumor growth inhibition [2, 27]: 80.6%; Tumor growth inhibition [2, 28]: 72.6%; tumor volume V±m [3, 18]: 82.2±5.9 mm3; tumor volume V±m [3, 19]: 127.5 mm3; tumor volume V±m [3, 21]: 292.5 mm3; tumor volume V±m ([3]; 27 day after tumor implantation): 463.1 mm3; tumor volume V±m [3, 22]: 958.0 mm3; tumor volume V±m [3, 23]: 1684.0 mm3; Tumor growth inhibition [3, 24]: 36.2%; Tumor growth inhibition [3, 25]: 40.0%; Tumor growth inhibition [3, 26]: 44.9%; Tumor growth inhibition [3, 27]: 29.5%; Tumor growth inhibition [3, 28]: 38.3%; TGI, did not exceed [3]: ≤ 44.9%
2 | CC[C@H](C)[C@@H]([C@@H](CC(=O)N1CCC[C@H]1[C@H](OC)[C@@H](C)C(=O)N[C@H](C)[C@@H](O)c1ccccc1)OC)N(C)C(=O)[C@@H](NC(=O)[C@H](C(C)C)N(C)C(=O)OCc1ccc(NC(=O)[C@H](CCCNC(N)=O)NC(=O)[C@@H](NC(=O)CCCc2cn(CCCNC(=O)[C@H](Cc3ccc(O)cc3)NC(=O)[C@H](Cc3ccccc3)NC(=O)CCC(=O)NCCCCCC(=O)N(CCCC[C@H](NC(=O)N[C@@H](CCC(=O)O)C(=O)O)C(=O)O)Cc3cccc(Cl)c3)nn2)C(C)C)cc1)C(C)C [I, reference compound] ({GluureaLys(ε-3-ClBenzyl)-Ahx-Suc}-FY[X2]V[Cit][PABC][NMeV]V[Dil][Dolaproine]-X1) | 23.4 ± 0.8 | 23.9 ± 1.2 | 23.5 ± 1.7 | 23.4 ± 1.5 | 23.2 ± 1.4 | 23.2 ± 1.6 | 23.4 ± 1.5 | 22.4 ± 2.1 | 22.8 ± 1.8 | 22.4 ± 1.6 | 22.8 ± 1.4 | 23.0 ± 1.3 | 23.2 ± 1.4 | 23.1 ± 1.3 | 78.3±16.3 | 85.4±25.5 | 92.6±34.8 | 147.7 | 419.5 | 824.4 | Tumor growth inhibition [2, 24]: 77.4%; Tumor growth inhibition [2, 27]: 80.1%; Tumor growth inhibition [2, 28]: 71.0%; tumor volume V±m [3, 18]: 80.3±4.5 mm3; tumor volume V±m [3, 19]: 92.6±14.8 mm3; tumor volume V±m [3, 20]: 128.9 mm3; tumor volume V±m [3, 22]: 1059.1 mm3; tumor volume V±m [3, 23]: 1855.5 mm3; Tumor growth inhibition [3, 27]: 37.2%; Tumor growth inhibition [3, 28]: 21.1%; TGI, did not exceed [3]: ≤ 37.7%
